Reference: PubChem BioAssay AID1996
Values after ≈ are worked out from the molar mass of the structure shown.

Details: buffer; pH 7.4; 200.0 µM

| solubility kinetic [µg/mL] | SMILES |
| --- | --- |
| 12.5 (≈ 39.5 µM) | Cc1ccc(-c2csc(NC(=O)Cc3ccc(F)cc3)n2)o1 |
| 10.5 (≈ 30.5 µM) | Cc1cc(NC(=O)CN(C)S(=O)(=O)c2cccc(Cl)c2)no1 |
| > 54.4 | C=CCN(CC(=O)NC1CC1)S(=O)(=O)c1cccc(C(F)(F)F)c1 |
| < 0.2 | CCCCN(CCO)c1ncnc2sc(-c3ccccc3)cc12 |
| 60.9 | CCCCOc1c(Br)cc(CNCCCN2CCOCC2)cc1OC.Cl |
| > 46.6 | O=C(CCNC(=O)c1ccco1)Nc1ccc(Cl)cc1F |
| > 53.6 | Cc1ccccc1C(=O)NC1CCN(CC(=O)N2CCCCC2C)CC1 (stereo not drawn) |
| > 32.7 | O=C(Cc1ccccc1)NN1CCCCC1 |
| > 49 | COc1ccc(C(=O)N2CCN(c3ccccc3OC)CC2)cc1 |
| > 47.1 | CC(C)(C)c1ccc(OCC(O)CN2CCCC2)cc1.Cl (stereo not drawn) |
| 40.4 (≈ 140 µM) | Cc1[nH]c2ccccc2c1SCC(=O)N1CCCCC1 |
| 2 (≈ 4.43 µM) | COc1ccc(CCNC(=O)CSc2nc3scc(-c4ccccc4)c3c(=O)[nH]2)cc1 |
| 18.9 (≈ 55.9 µM) | Cc1cc(C(=O)NCc2nc(-c3ccccc3)no2)ccc1[N+](=O)[O-] |
| > 39.3 | CNC(=O)CSc1nnc(-c2ccccc2)n1C |
| 0.8 (≈ 2.55 µM) | COC(=O)c1ccc(NC(=O)Nc2ccc3c(c2)OCO3)cc1 |
| > 47.4 | COc1ccc(C(=O)COC(=O)c2cnc(C)cn2)c(OC)c1 |
| > 47.2 | Cc1cnc(C(=O)OCC(=O)C23CC4CC(CC(C4)C2)C3)cn1 |
| 26.8 (≈ 125 µM) | COc1ccc(NCc2cccnc2)cc1 |
| > 38.8 | Nc1nnc(SCC(=O)NC2CCCC2)s1 |
| > 41 | N#CC(=C=[N-])/C=C(\C(=O)c1ccccc1)[n+]1ccccc1 |
| 17.3 (≈ 50.5 µM) | COc1ccc(OCC(=O)N2c3ccccc3CC2C)c([N+](=O)[O-])c1 (stereo not drawn) |
| > 46.1 | CCN(CC)C(=O)n1c(Cc2ccccc2)nc2ccccc21 |
| 11.1 (≈ 37 µM) | O=C(NCc1ccco1)Nc1ccc(OC(F)(F)F)cc1 |
| 44.9 (≈ 131 µM) | COc1cc(OC)c(CN2CCCN(C)CC2)cc1Br |

| solubility kinetic [µg/mL] | SMILES |
| --- | --- |
| > 50.6 | COc1ccccc1C(NC(C)=O)c1c(O)ccc2ccc(O)cc12 (stereo not drawn) |
| > 47.9 | O=S(=O)(c1ccc(F)c(F)c1)N1CCC2(CC1)OCCO2 |
| > 76.1 | CN(C(=O)COC(=O)c1ccc(Cl)c(S(=O)(=O)N2CCCCCC2)c1)C1CCS(=O)(=O)C1 (stereo not drawn) |
| 4.1 (≈ 13.1 µM) | CCn1c(=O)c(C(=O)CC#N)c(N)n(Cc2ccccc2)c1=O |
| 38.2 (≈ 112 µM) | COc1cccc2c1Oc1cc([N+](=O)[O-])cc(N(C)C(C)=O)c1C=C2 |
| 44.3 (≈ 144 µM) | CCCCNS(=O)(=O)c1cc2c3c(c1)CCN3C(=O)CC2 |
| > 43.6 | C=CCN(CC=C)C(=S)Nc1ccc2nsnc2c1 |
| > 28.4 | O=C(O)c1cc(=O)c2ccccc2[nH]1 |
| > 52.2 | CCOc1ccc(Nc2nc(NCC(=O)O)nc(N)c2[N+](=O)[O-])cc1 |
| < 0.2 | O=C(Nc1ccc2ccccc2n1)Nc1cccs1 |
| 33.1 (≈ 137 µM) | O=C(/C=C/c1ccco1)NCCc1ccccc1 |
| > 62.4 | Cc1ccc(NC(=O)COC(=O)c2cc(=O)c3ccccc3o2)c(Br)c1 |
| 5.2 (≈ 18.5 µM) | N#Cc1ccccc1COC(=O)c1ccc2c(c1)OCO2 |
| 37.7 (≈ 135 µM) | CC(C)S(=O)(=O)c1cnc(-c2cccnc2)nc1N |
| > 48.6 | CCN(C(=O)COC(=O)c1ccc([N+](=O)[O-])o1)C1CCCCC1 |
| 46.3 (≈ 140 µM) | CN(Cc1ccccc1)C(=O)COC(=O)Cc1ccc(Cl)cc1 |
| > 55.4 | O=C(NCC1CCCO1)c1cc(Br)c(Br)s1 (stereo not drawn) |
| 6.2 (≈ 20 µM) | CCOc1ccccc1NCc1cc(=O)oc2cc(C)ccc12 |
| 36.5 | Cc1ccc(C)c(N2CCN(CCN3CCCCC3)CC2)c1.Cl |
| 2.8 (≈ 11.1 µM) | CCc1ccc(C2NC(=O)c3ccccc3O2)cc1 (stereo not drawn) |
| 44.9 | CCOc1ccc(C(=O)CCN2CCOCC2)cc1.Cl |
| > 47.8 | CC(C)[C@H](NC(=O)N1CCC(Cc2ccccc2)CC1)C(=O)O |
| > 44.4 | CCOC(=O)c1cc(C#N)c(SCC(=O)OC)[nH]c1=O |
| 2.4 (≈ 7.21 µM) | O=C(COc1ccc([N+](=O)[O-])cc1Cl)N1CCc2ccccc21 |

| solubility kinetic [µg/mL] | SMILES |
| --- | --- |
| > 34.5 | O=C1CN(C(=O)/C=C/c2ccccc2)CCN1 |
| < 0.3 | CCCCC(=O)NC(=O)NC(c1ccccc1)c1ccccc1 |
| > 63 | COc1ccccc1CNC(=O)CN(C)CC(=O)Nc1ccccc1Br |
| 17.8 (≈ 53.7 µM) | C=C(C)CN(CC)c1ccc(N2C(=O)CCCC2=O)cc1[N+](=O)[O-] |
| 8.4 (≈ 25.7 µM) | O=C1NC2(CCCCC2)C(=O)N1Cc1cccc(C(F)(F)F)c1 |
| > 35.6 | O=C(COC(=O)c1ccccc1F)NC1CC1 |
| 35.2 (≈ 106 µM) | C/C=C/c1ccc(OCC(O)CN2CCCCCCC2)c(OC)c1 (stereo not drawn) |
| > 38.3 | Cc1ccccc1NC(=O)CCOc1ccccc1 |
| 6.3 (≈ 18.9 µM) | O=C(NCCOc1ccc(Cl)cc1)c1ccc2c(c1)OCCO2 |
| 2.3 (≈ 6.76 µM) | COC(=O)c1sccc1NC(=O)c1ccccc1Br |
| 0.5 (≈ 1.68 µM) | COc1ccccc1C(=O)Nc1sc2c(c1C#N)CCC2 |
| 8.4 (≈ 27.5 µM) | COc1ccccc1CNC(=O)COC(=O)c1cccs1 |
| 7.7 (≈ 22 µM) | Cc1ccc(-n2c(=O)c3ccccc3n(CC(=O)C(C)(C)C)c2=O)cc1 |
| 35 (≈ 111 µM) | O=C(Nc1ccc(C(=O)N2CCCCC2)cc1)c1cccs1 |
| 39.9 | Cc1ccsc1CNC1C2CC3CC(C2)CC1C3.Cl (stereo not drawn) |
| > 45.1 | O=S(=O)(NCCc1c[nH]c2ccccc12)c1ccccc1 |
| 19.4 (≈ 60.7 µM) | C=CCN(c1nc(C)cc(OC)n1)S(=O)(=O)c1ccccc1 |
| > 44.9 | CN(C)CCCNC(=O)c1cc(C(=O)c2ccccc2)c[nH]1 |
| > 44.9 | CCCN(CCC)C(=O)CC(c1ccccc1)c1ccco1 (stereo not drawn) |
| < 0.5 | O=c1cc(-c2ccccc2)c2cc(Cl)ccc2[nH]1 |
| 1.4 (≈ 5.01 µM) | O=c1cc(-c2ccccc2)c2cc3c(cc2[nH]1)OCCO3 |
| > 62.6 | COc1cc(OC)c(C(=O)OC(C)C(=O)NCc2ccc3c(c2)OCO3)cc1OC (stereo not drawn) |
| > 75.5 | CCOc1cc(C(=O)Nc2ccc(S(=O)(=O)Nc3onc(C)c3C)cc2)cc(OCC)c1OCC |
| > 44.9 | COc1cccc(NC(=O)CN(C)C(=O)c2ccccn2)c1 |

| solubility kinetic [µg/mL] | SMILES |
| --- | --- |
| > 49 | C=CCn1c(Oc2cccc(C)c2)nc2c1c(=O)n(C)c(=O)n2C |
| 15.1 (≈ 45 µM) | COc1ccccc1C(=O)NCCSCc1ccccc1Cl |
| > 46.7 | O=C(c1ccc(F)cc1)C1CCN(C(=O)c2ccccc2)CC1 |
| 10.4 (≈ 38.2 µM) | C=CCc1c(C)nc(SCc2ccccc2)[nH]c1=O |
| > 58.7 | COc1ccc(CCN=C(N)NS(=O)(=O)c2ccc(C)c(C)c2)cc1OC |
| > 44.3 | CC1CN(C(=S)Nc2cccc([N+](=O)[O-])c2)CC(C)O1 (stereo not drawn) |
| > 45.2 | O=C(O)Cc1sc(-c2ccccc2)nc1-c1cccs1 |
| 28.2 (≈ 95.5 µM) | Cc1ccc(C(=O)OCC(=O)N2C(C)CCCC2C)s1 (stereo not drawn) |
| > 50 | COc1ccc(C)cc1NC(=O)CCCN1C(=O)NC(C)(C)C1=O |
| > 37.5 | Cc1cnc(=O)[nH]c1SCc1ccccc1F |
| 22 (≈ 60.4 µM) | CCOc1cccc(C(=O)Nc2cc(C)ccc2NC(=O)c2ccco2)c1 |
| < 0.4 | CCn1c(=O)c(C(=O)NCc2ccc(F)cc2)c(O)c2ccccc21 |
| > 40.1 | O=C(CN1C(=O)CCC1=O)NC(=O)NC1CCCC1 |
| 2 (≈ 6.54 µM) | O=C1OCc2ccc(NC(=O)c3c(F)cccc3Cl)cc21 |
| < 0.1 | CCOC(=O)CNc1nc(Cl)nc(Nc2ccc(Cl)cc2)n1 |
| 28.6 (≈ 123 µM) | COc1ccc(CNC(=O)C2CCCC2)cc1 |
| 2.6 (≈ 7.1 µM) | COC(=O)/C=C1\SC(=NC(=O)c2ccc(-c3ccccc3)cc2)NC1=O |
| > 39 | O=S(=O)(Nc1ccc(F)cc1)N1CCOCC1 |
| > 37.2 | CCC(C)(NC=O)C(=O)Nc1c(C)cccc1C (stereo not drawn) |
| > 56.9 | O=C(CSc1cc(Cl)ccc1Cl)NCCN1C(=O)CSC1=O |
| > 56.9 | CCn1c(=O)c2c(nc(SCC(=O)N3CCC(C)CC3)n2C)n(C)c1=O |
| > 38.6 | CC(=O)c1c(C)[nH]c(C(=O)Nc2ccccn2)c1C |
| > 31.1 | O=C1CCCC(=O)N1c1ccc(F)cc1 |
| > 54.8 | CC(C)C(NCC(=O)Nc1ccccc1C(=O)NC1CC1)c1ccccc1 (stereo not drawn) |

| solubility kinetic [µg/mL] | SMILES |
| --- | --- |
| 43 (≈ 124 µM) | COCCSc1ncnc2c1oc1nc3c(cc12)COC(C)(C)C3 |
| 46.9 (≈ 140 µM) | COC(=O)CN1C(=O)N/C(=C/c2cc(OC)c(OC)cc2C)C1=O |
| 21.5 (≈ 80.5 µM) | O=C(Nc1ccccc1C(F)(F)F)c1cnccn1 |
| 28.4 (≈ 67.5 µM) | COc1ccc(S(=O)(=O)N2CCOCC2)cc1NC(=O)COc1ccc(C)cc1 |
| 43.1 (≈ 146 µM) | Cc1noc(NC(=O)c2cccc(Cl)c2Cl)c1C#N |
| < 0.6 | COC(=O)c1sccc1NC(=O)c1cccc(Cl)c1 |
| > 47.6 | CN(C)CCCNC(=O)c1cc(C(=O)c2ccc(F)cc2)c[nH]1 |
| 7 (≈ 17.7 µM) | O=S(=O)(c1ccc(Cl)cc1)N1CCN(c2ncnc3sccc23)CC1 |
| 38.2 (≈ 86.5 µM) | COc1ccc(-c2csc(NC(=O)[C@H](C)N3C(=O)C4CC=CCC4C3=O)n2)cc1OC (stereo partly drawn) |
| 31.4 (≈ 98.6 µM) | CCOCCCNC(=O)c1c[nH]c2ccc(OCC)cc2c1=O |
| > 48.5 | CNC(=O)CN1C(=O)NC(c2ccccc2)(c2ccccc2)C1=O |
| 7.6 (≈ 16.6 µM) | Cc1cc(NC(=O)CSCC(=O)Nc2cc(C(F)(F)F)ccc2N2CCCCC2)no1 |
| 7.8 (≈ 26.9 µM) | Cc1ccc(C(C)NC(=S)NC2CCCCC2)cc1C (stereo not drawn) |
| 29.4 (≈ 110 µM) | FC(F)(F)c1ccccc1CNCc1ccncc1 |
| 41.2 (≈ 125 µM) | CCc1ccc(NS(=O)(=O)c2ccc3oc(=O)ccc3c2)cc1 |
| 41.4 (≈ 120 µM) | O=C(c1ccccc1)c1cccn1CC(=O)N1CCc2ccccc2C1 |
| 3.3 (≈ 9.08 µM) | O=C(Nc1ccc([N+](=O)[O-])c(NC(=O)c2cccnc2)c1)c1cccnc1 |
| 39.6 (≈ 136 µM) | CCC1Sc2ccccc2N(CC(=O)NC2CC2)C1=O (stereo not drawn) |
| 3.4 (≈ 10 µM) | Cc1cccc(OC(C)C(=O)Nc2nc(-c3ccncc3)cs2)c1 (stereo not drawn) |
| 37.5 (≈ 133 µM) | CC(C)C(=O)Nc1cccc(-c2nc3ncccc3o2)c1 |
| 40.4 (≈ 142 µM) | CCn1cc(CCC(=O)NC2CCCC2)c2ccccc21 |
| > 43.6 | COCc1cc(=O)[nH]c(SCC(=O)c2ccccc2)n1 |
